Experimental data as given in patent publication US20240390298A1, “CYCLOHEXYL BETA-HYDROXY ALKYL AMINES AND MEDICAL USES THEREOF” (ATROGI AB, priority 2021, published 2024).

Columns and labels:
[1] = tested on: L6-myotubes; experiment: Glucose uptake in differentiated L6-myotubes (3H-2-deoxyglucose), compared to isoproterenol; assay type: cell-based; conditions: agonist 1×10^−5 M, 50 nM 3H-2-deoxyglucose; for Emax at 10 µM: read-out: Biological example 1: glucose uptake, activity compared to that of isoproterenol
Description: (§1) L6-myoblasts were grown in Dulbecco's Modified Eagle's Medium (DMEM) containing 1 g/L glucose supplemented with 10% fetal bovine serum, 2 mM L-Glutamine, 50 U/mL penicillin, 50 μg/mL streptomycin and 10 mM HEPES. Cells were plated at 1×10^5 cells per mL in 24-well plates. After reaching 90% confluence the cells were grown in medium containing 2% FBS for 7 days where upon cells differentiated into myotubes.
Differentiated L6-myotubes were serum-starved overnight in medium containing 0.5% fatty-acid free BSA and stimulated with an agonist, with a final concentration of 1×10^−5 M. After 1 h 40 min the cells were washed with warm glucose free medium or PBS twice and another portion of agonist was added to the glucose free medium. After 20 min the cells were exposed to 50 nM ^3H-2-deoxyglucose for 10 min before washed with ice cold glucose free medium or PBS three times and lysed with 0.2 M NaOH, 400 μL/well, for 1 h at 60° C. The cell lysate was mixed with 4 mL scintillation buffer (Emulsifier Safe, Perkin Elmer) and the radioactivity was detected in a β-counter (Tri-Carb 4810TR, Perkin Elmer). The activity for each compound is compared to that of isoproterenol.

[2] = tested on: L6-myotubes; experiment: Measurement of intracellular cAMP levels in differentiated L6 cells (alpha screen cAMP kit), compared to isoproterenol; assay type: cell-based; conditions: Rattus norvegicus, L6, 0.25 h, agonist 1×10^−5 M, 15 min, read-out: Biological example 2: intracellular cAMP levels, activity compared to that of isoproterenol
Description: as §1
Differentiated cells were serum-starved overnight and stimulated with an agonist, final concentration 1×10^−5 M, for 15 min in stimulation buffer (HBSS supplemented with 1% BSA, 5 mM HEPES and 1 mM IBMX, pH 7.4). The medium was aspirated and 100 μL of 95% EtOH was added to each well of the 24-well plate and cells were kept at −20° C. overnight. The EtOH was allowed to evaporate and 500 μL of lysis buffer (1% BSA, 5 mM HEPES and 0.3% Tween-20, pH 7.4) was added to each well. The plate was kept at −80° C. for 30 min and then at −20° C. until the day of detection when the samples were thawed. Intracellular cAMP levels were detected using an alpha screen cAMP kit (6760635D from Perkin Elmer). The activity for each compound is compared to that of isoproterenol.

| SMILES | Biological example 1: glucose uptake, activity compared to that of isoproterenol [1] | Emax at 10 µM [2] [%] | Emax at 10 µM [1] [%] |
| --- | --- | --- | --- |
| CC(C)(C[C@H]1CC[C@@H](O)CC1)NC[C@H](O)c1cccc(F)c1.Cl [Example 49, (1S,4s)-4-(2-(((R)-2-(3-Fluorophenyl)-2-hydroxyethyl)amino)-2-methylpropyl)cyclohexan-1-ol hydrochloride] | + + | < 25 | – |
| CC(C)(C[C@H]1CC[C@@H](O)CC1)NC[C@H](O)c1cncc(F)c1.Cl [Example 50, (1S,4s)-4-(2-(((R)-2-(5-Fluoropyridin-3-yl)-2-hydroxyethyl)amino)-2-methylpropyl)cyclohexan-1-ol hydrochloride] | + + + | < 25 | – |
| CC(C)(C[C@H]1CC[C@H](O)CC1)NC[C@H](O)c1cccc(F)c1.Cl [Example 51, (1R,4r)-4-(2-(((R)-2-(3-Fluorophenyl)-2-hydroxyethyl)amino)-2-methylpropyl)cyclohexan-1-ol hydrochloride] | + + + | < 25 | – |
| CC(C)(C[C@H]1CC[C@H](O)CC1)NC[C@H](O)c1cncc(F)c1 [Example 52, (1R,4r)-4-(2-(((R)-2-(5-Fluoropyridin-3-yl)-2-hydroxyethyl)amino)-2-methylpropyl)cyclohexan-1-ol] | + + + | < 25 | – |
| O[C@@H](CNCCCC1CCC(OCc2ccccc2)CC1)c1cccc(F)c1 (stereo partly drawn) [Example 53, (R)-2-((3-((1r,4S)-4-(Benzyloxy)cyclohexyl)propyl)amino)-1-(3-fluoro-phenyl)ethan-1-ol] | – | < 25 | 25 to 50 |
| O[C@@H](CNCCCC1CCC(OCc2ccccc2)CC1)c1cncc(F)c1 (stereo partly drawn) [Example 54, (R)-2-((3-((1r,4S)-4-(Benzyloxy)cyclohexyl)propyl)amino)-1-(5-fluoro-pyridin-3-yl)ethan-1-ol] | – | < 25 | 25 to 50 |
| O[C@@H](CNCCC[C@H]1CC[C@@H](OCc2ccccc2)CC1)c1cccc(F)c1 [Example 55, (R)-2-((3-((1s,4R)-4-(Benzyloxy)cyclohexyl)propyl)amino)-1-(3-fluoro-phenyl)ethan-1-ol] | – | < 25 | 25 to 50 |
| O[C@@H](CNCCC[C@H]1CC[C@@H](OCc2ccccc2)CC1)c1cncc(F)c1 [Example 56, (R)-2-((3-((1s,4R)-4-(Benzyloxy)cyclohexyl)propyl)amino)-1-(5-fluoro-pyridin-3-yl)ethan-1-ol] | + + | < 25 | – |
| O[C@@H](CNCCC[C@H]1CC[C@H](O)CC1)c1cccc(F)c1 [Example 57, (1S,4r)-4-(3-(((R)-2-(3-Fluorophenyl)-2-hydroxyethyl)amino)propyl)-cyclohexan-1-ol] | + + | < 25 | – |
| O[C@@H](CNCCC[C@H]1CC[C@H](O)CC1)c1cncc(F)c1 [Example 58, (1S,4r)-4-(3-(((R)-2-(5-Fluoropyridin-3-yl)-2-hydroxyethyl)amino)-propyl)cyclohexan-1-ol] | – | < 25 | 25 to 50 |
| O[C@@H](CNCCC[C@H]1CC[C@@H](O)CC1)c1cccc(F)c1 [Example 59, (1R,4s)-4-(3-(((R)-2-(3-Fluorophenyl)-2-hydroxyethyl)amino)propyl)-cyclohexan-1-ol] | – | < 25 | 25 to 50 |
| O[C@@H](CNCCC[C@H]1CC[C@@H](O)CC1)c1cncc(F)c1 [Example 60, (1R,4s)-4-(3-(((R)-2-(5-Fluoropyridin-3-yl)-2-hydroxyethyl)amino)propyl)-cyclohexan-1-ol] | + + | < 25 | – |
| CC(C)(CC[C@H]1CC[C@H](O)CC1)NC[C@H](O)c1cccc(F)c1 [Example 61, (1S,4r)-4-(3-(((R)-2-(3-Fluorophenyl)-2-hydroxyethyl)amino)-3-methyl-butyl)cyclohexan-1-ol] | – | < 25 | 25 to 50 |
